Measurements published in paper PMC4900628, “Critical Evaluation of P2X7 Receptor Antagonists in Selected Seizure Models” (PLoS ONE, 2016).
Like-named read-outs stand apart in the source and are kept apart here.

Key:
Assay type in all cases: in vivo
[1] = tested on: electroshock-induced tonic (hindlimb extension) seizures; assay: Maximal electroshock seizure threshold test (MES-T); settings: mice; carbamazepine 7 mg/kg i.p. alone, 30 min before
Description: The stimulus train was applied via ear-clip electrodes (sinusoidal pulses 4-14 mA, 50 Hz, 0.2 s duration) by means of a constant current stimulator (rodent-shocker type 221; Hugo Sachs Elektronik, March-Hugstetten, Germany). […] Groups of 20 mice were used. Control groups, which received the corresponding vehicle, were tested together with the compound-treated groups on the same experimental day. Current intensity-effect curves were obtained on the basis of the number of animals responding with the endpoint at the corresponding current value. The results are calculated as convulsive current fifty (CC50) values (current intensity in mA, necessary to produce tonic hindlimb extension in 50% of the mice tested) including the confidence limits for 95% probability. […] Chemicals, Toronto, Canada) was slowly added. The pH was adjusted with 1N NaOH (similar amount of NaOH as HCl), all with continuous stirring. […] The drug solutions or suspensions were prepared immediately before use; all doses refer to the salts. Animals in the control group received equivalent volumes of the vehicle (in mice always 10 ml/kg, in rats 1 ml/kg [JNJ], 3 ml/kg [AFC] or 4 ml/kg [BBG, TIIAS], depending on the solubility of the different compounds). Doses and peak time effects were selected on the basis of effective doses from corresponding in vivo studies in the literature: BBG (e.g.), tanshinone IIA (e.g.) and from manufacturer's experimental data: AFC, JNJ (see, [80]). Data were analysed using SigmaPlot (vers. 12.0, Systat Software, Erkrath, Germany) and SPSS (IBM SPSS Statistics 20, […], Germany), respectively. Results are expressed as mean ± SEM. […] In the PTZ-T, the number of animals in the group with clonic seizures and the latency time were analysed using Fisher's exact probability test and the Mann-Whitney rank sum test, respectively. […] In the PTZ-kindling model, the mean seizure stage within a group was calculated in relation to the number of PTZ-injections. […] In fully kindled rats, the calculated mean seizure stage within a group after vehicle- and compound-treatment were compared using a paired t-test. […]

[2] = Plasma and brain concentration in mice (co-administration with AEDs); settings: MES-T; for concentration at 30 min: mouse, brain, intraperitoneal, CBZ 7 mg/kg i.p.
Description: Blood was collected intracardially by heart […] pipettes supplemented with heparin-Na (ratiopharm, Ulm, Germany; 10μl of 5.000 I.U./ml) and separated by centrifuging (1500xg for 10 min) at 6-8°C. The plasma was stored at -20°C in plastic tubes. After blood sample collection, rats were decapitated and brains were quickly dissected. After removing the adherent blood by tissue paper and cutting off the cerebellum, the samples were fresh frozen using liquid nitrogen. Brain tissue was stored at -80°C and delivered to the different laboratories on dry ice. For mice (groups with n = 6), a similar procedure was used for the preparation of plasma and brain samples. In experiments in which AFC was co-administered with carbamazepine or ethosuximide, drug concentrations in plasma and brain were estimated to detect potential pharmacokinetic interactions. Samples from experiments with AFC were analysed at the Lead Discovery Center (Dortmund, Germany). Briefly, AFC, carbamazepine and ethosuximide were extracted from plasma and homogenized brain by protein precipitation using acetonitrile. Resulting filtrates were analysed by liquid chromatography tandem-mass spectrometry (LC-MS/MS) using a Prominence UFLC system (Shimadzu, Duisburg, Germany) coupled to a QTrap 5500 instrument (ABSciex, Darmstadt, Germany). The compounds were separated on a Zorbax Eclipse Plus C18 column (Agilent Technologies, Santa Clara, CA, USA) with an acetonitrile/water gradient containing 0.1% formic acid as solvent. Chromatographic conditions and mass spectrometer parameters were optimized for each analyte. Plasma and brain concentrations of the compounds were calculated by means of a standard curve. Data were analysed using SigmaPlot (vers. 12.0, Systat Software, Erkrath, Germany) and SPSS (IBM SPSS Statistics 20, […], Germany), respectively. Results are expressed as mean ± SEM. […] In the MES-T, the current intensity inducing tonic hindlimb extensions in 50% of the mice (CC50 values with confidence limits for 95% probability) and the statistical significance was calculated using Probit analysis (SPSS). […] In the PTZ-T, the number of animals in the group with clonic seizures and the latency time were analysed using Fisher's exact probability test and the Mann-Whitney rank sum test, respectively. For multiple comparisons of the latency time a one-way ANOVA with the Holm-Sidak post hoc test was used. The influence of AFC on the plasma and brain concentrations of the antiepileptic drugs was statistical compared using the same procedure. In the PTZ-kindling model, the mean seizure stage within a group was calculated in relation to the number of PTZ-injections. Statistical comparison between vehicle- and compound-treated groups in this model was performed with two-way repeated measures ANOVA, followed by the Holm-Sidak post hoc test. The mean number of PTZ-injections needed to produce the first generalized seizure (≥ stage 3 convulsions) in the vehicle- versus compound-treated groups was statistically compared using a Mann-Whitney rank sum test. In fully kindled rats, the calculated mean seizure stage within a group after vehicle- and compound-treatment were compared using a paired t-test. P < 0.05 was the accepted minimum level of significance.

[3] = tested on: PTZ-induced seizures in fully PTZ-kindled rats; assay: PTZ-induced seizures in fully kindled rats; settings: fully kindled rats; 20 mg/kg i.p.; pre-drug (vehicle) value 4.1
Excerpt: Results were expressed as mean seizure stages of a tested group in which the seizure behaviour after vehicle treatment (vehicle seizure stage) and after compound treatment (compound seizure stage), examined 3-4 days later, was matched. For comparison, the effectiveness of two antiepileptic drugs (carbamazepine and valproate) was also investigated. […] Chemicals, Toronto, Canada) was slowly added. The pH was adjusted with 1N NaOH (similar amount of NaOH as HCl), all with continuous stirring. […] The drug solutions or suspensions were prepared immediately before use; all doses refer to the salts. Animals in the control group received equivalent volumes of the vehicle (in mice always 10 ml/kg, in rats 1 ml/kg [JNJ], 3 ml/kg [AFC] or 4 ml/kg [BBG, TIIAS], depending on the solubility of the different compounds). Doses and peak time effects were selected on the basis of effective doses from corresponding in vivo studies in the literature: BBG (e.g.), tanshinone IIA (e.g.) and from manufacturer's experimental data: AFC, JNJ (see, [80]). Data were analysed using SigmaPlot (vers. 12.0, Systat Software, Erkrath, Germany) and SPSS (IBM SPSS Statistics 20, […], Germany), respectively. Results are expressed as mean ± SEM. […] In the MES-T, the current intensity inducing tonic hindlimb extensions in 50% of the mice (CC50 values with confidence limits for 95% probability) and the statistical significance was calculated using Probit analysis (SPSS). […] In the PTZ-T, the number of animals in the group with clonic seizures and the latency time were analysed using Fisher's exact probability test and the Mann-Whitney rank sum test, respectively. For multiple comparisons of the latency time a one-way ANOVA with the Holm-Sidak post hoc test was used. The influence of AFC on the plasma and brain concentrations of the antiepileptic drugs was statistical compared using the same procedure. In the PTZ-kindling model, the mean seizure stage within a group was calculated in relation to the number of PTZ-injections. Statistical comparison between vehicle- and compound-treated groups in this model was performed with two-way repeated measures ANOVA, followed by the Holm-Sidak post hoc test. The mean number of PTZ-injections needed to produce the first generalized seizure (≥ stage 3 convulsions) in the vehicle- versus compound-treated groups was statistically compared using a Mann-Whitney rank sum test. In fully kindled rats, the calculated mean seizure stage within a group after vehicle- and compound-treatment were compared using a paired t-test. P < 0.05 was the accepted minimum level of significance.

Q: What does the source list for `NC(=O)N1c2ccccc2C=Cc2ccccc21` [carbamazepine]?
A: increase of the electroconvulsive threshold [1]: about 50%; plasma concentrations of CBZ on co-application of AFC ([2]; AFC 25 or 50 mg/kg s.c.): not significantly modulated; concentration at 30 min ([2]; 7 mg/kg, n = 6, read-out: brain concentration of CBZ alone): 22.8 ± 1.5 µM; concentration at 30 min ([2]; n = 6, significantly lowered, read-out: brain concentration of CBZ with AFC 25 mg/kg s.c.): 16.2 ± 0.6 µM; concentration at 30 min ([2]; n = 6, significantly lowered, read-out: brain concentration of CBZ with AFC 50 mg/kg s.c.): 17.2 ± 1.7 µM; mean seizure stage, post-drug [3]: 2.3
